# From US20100093650A1, “Pharmaceutical Anit-Infective Composition for Inhalation” (LABORATORIES SMB S.A., priority 2006, published 2010)
# Tests used:
# [1] = In vitro lung deposition, Multistage Liquid Impinger (MLI); type: physicochemical; conditions: for lung concentration per capsule: estimated from lung deposition with about 100 ml epithelial liquid in the lung, composition of example 6
# Source text: The amount of macrolide agent inhaled shall be high enough to affect, in some way, the biofilm. It has to be noted that as the effect of macrolide derivatives on the biofilm is mediated through a non-antibacterial mechanism. […] Nevertheless, it is a another object of the present invention to provide a composition containing high concentrations (or amounts) of each of the aminoglycoside derivative and of the macrolide derivative i.e. at least more than 10%, preferably more than 15%, and more preferably more than 20% of the dry powder composition. It is indeed particularly interesting to achieve high lung doses of those therapeutic agents with the minimum amounts of inhalations because it makes the administration easier and more importantly increase the patient's compliance. It also decreases the nominal dose of each active ingredient and thus the adverse effects linked to these actives. In the present invention, the dry powder inhaler also provides a high Fine Particle Dose (FPD) and Fine Particle […] (FPF) when tested in vitro on a Multistage Liquid Impinger (MLI, Eur. Pharm, 5th Edition, chapter 2.9.18). The FPD and FPF are the parameters that predict in vivo lung deposition.
# The in vitro lung deposition test was performed using equipment and conditions as described in the European Pharmacopoeia (5th edition, chapter 2.9.18—apparatus C). This equipment consists of a Multistage Liquid Impinger (MLI) and was operated with an air flow of 100 L/min during a period of time of 2.4 seconds to simulate inhalation capabilities of patients. The quantification of the deposition of each drug on each stage of the MLI was performed by HPLC equipped with a a Corona detector.
# [2] = test system: 12 day old Pseudomonas aeruginosa biofilm; assay: MIC on 12 day old biofilm; type: cell-based
# Source text: (§1) Biofilms of Pseudomonas aeruginosa—strain PY O1 were formed according to the methods described by Ceri et al, the calgary biofilm device: new technology for rapid determination of antibiotic susceptibilities of bacterial biofilms, Journal of clinical microbiology, pp. 1771-1776, 1999 and Abdi-Ali et al, bactericidal activity of various antibiotics against biofilm-producing Pseudomonas aeruginosa, International Journal of Antimicrobial Agents 27, 196-200, 2006.
# (§2) PY O1: is a cystic Fibrosis clinical mucoid strain of Pseudomonas aeruginosa received from the Erasme Hospital, Brussels.
# In a second experiment using the same modus operandi as above, we measured the MIC of Tobramycin on a 12 day old Pseudomonas aeruginosa biofilm. This situation is much closer to the situation observed in vivo in chronic respiratory diseases like Cystic Fibrosis.
# [3] = test system: 12 day biofilm of Pseudomonas aeruginosa; assay: Bacterial count (CFU/ml) of 12-day biofilm after 24 hours with the products; type: cell-based; conditions: for bacterial count in biofilm (CFU/ml × 10^7): 24 hours; for decrease of the number of CFU/ml of the 12-day biofilm versus the positive control: concentrations of Table 1 (tobramycin 4 μg/ml; clarithromycin 100, 200, 500 μg/ml; combinations)
# Source text: as §1, §2
# After having shown that the number of Pseudomonas aeruginosa within the biofilms was stable after 12 days, the products listed in Table 1 were added to the media for the duration of 24 hours. Thereafter the biofilm was rinsed three times with a 0.01 M phosphate buffer adjusted at pH 7.5 in order to remove all cells not bound to the biofilm. The microplate was then placed on ultrasonic bath at 35° C. for 5 minutes to allow the bacteria present in the biofilm to separate from such biofilm. A bacterial count was then performed (number of coloning forming unit CFU/ml). Each experience was done twice and the CFU counting was also repeated twice/experience.
# [4] = test system: planktonic Pseudomonas aeruginosa; assay: MIC on planktonic bacteria (NCCLS dilution method); type: cell-based
# Description: as §2
# The determination of the minimal inhibitory concentration (MIC) is performed according to the standard of NCCLS (NCCLS, Methods for dilution Antimicrobial Susceptibility Tests for bacteria that grow aerobically; approved standards, sixth edition, M7-A6, vol. 23 no.2, January 2003.
# [5] = Particle size by laser diffraction; type: physicochemical; conditions: micronized, measured by laser diffraction
# Source text: A dry powder composition for inhalation of tobramycin and clarithromycin was formulated using micronized tobramycin supplied by Teva Plantex (Israel). Clarithromycin was supplied by Teva Plantex (Israel) in a non-micronized form. Clarithromycin was then micronized using the micronizer MC-one® (JetpHarma, Switerland). […] The micronisation parameters were a pressure of 10 bars in the Venturi, a pressure of 8 bars in the ring and a feeding rate of 5 g/minute. The mean particle size of the micronized clarithromycin obtained (measured by laser diffraction) was 1.6 μm.
# [6] = MLI1, example 6 capsule 10 mg/10 mg, MLI 100 L/min
# [7] = MLI2, example 6 capsule 10 mg/10 mg, MLI 100 L/min
# [8] = MLI3, example 6 capsule 10 mg/10 mg, MLI 100 L/min
# [9] = Mean (n = 3), example 6 capsule 10 mg/10 mg, MLI 100 L/min
# [10] = composition of example 6, MLI 100 L/min
smiles,measurement,setting,value
NC[C@H]1O[C@H](O[C@H]2[C@H](O)[C@@H](O[C@H]3O[C@H](CO)[C@@H](O)[C@H](N)[C@H]3O)[C@H](N)C[C@@H]2N)[C@H](N)C[C@@H]1O [Tobramycin],Device deposition,[1]; [6],1.035 mg
same,FPD,[1]; [6],3.60 mg
same,FPF,[1]; [6],36%
same,Filter deposition,[1]; [6],0.664 mg
same,Stage 1 deposition,[1]; [6],1.760 mg
same,Stage 2 deposition,[1]; [6],0.614 mg
same,Stage 3 deposition,[1]; [6],1.512 mg
same,Stage 4 deposition,[1]; [6],1.598 mg
same,Throat deposition,[1]; [6],0.929 mg
same,Device deposition,[1]; [7],0.938 mg
same,FPD,[1]; [7],4.45 mg
same,FPF,[1]; [7],44.5%
same,Filter deposition,[1]; [7],0.838 mg
same,Stage 1 deposition,[1]; [7],1.837 mg
same,Stage 2 deposition,[1]; [7],0.726 mg
same,Stage 3 deposition,[1]; [7],1.818 mg
same,Stage 4 deposition,[1]; [7],1.965 mg
same,Throat deposition,[1]; [7],0.859 mg
same,Device deposition,[1]; [8],1.272 mg
same,FPD,[1]; [8],4.72 mg
same,FPF,[1]; [8],47.2%
same,Filter deposition,[1]; [8],0.778 mg
same,Stage 1 deposition,[1]; [8],1.546 mg
same,Stage 2 deposition,[1]; [8],0.606 mg
same,Stage 3 deposition,[1]; [8],1.895 mg
same,Stage 4 deposition,[1]; [8],2.202 mg
same,Throat deposition,[1]; [8],0.771 mg
same,Device deposition,[1]; [9],1.082 mg
same,FPD,[1]; [9],4.26 mg
same,FPF,[1]; [9],42.5%
same,Filter deposition,[1]; [9],0.760 mg
same,Stage 1 deposition,[1]; [9],1.714 mg
same,Stage 2 deposition,[1]; [9],0.648 mg
same,Stage 3 deposition,[1]; [9],1.742 mg
same,Stage 4 deposition,[1]; [9],1.922 mg
same,Throat deposition,[1]; [9],0.853 mg
same,FPD/capsule,[1]; [10],4.26 mg
same,FPF,[1]; [10],42.5%
same,lung concentration per capsule,[1],42.6 µg/mL
same,activity (MIC) on 12 day old biofilm,[2],no longer active
same,bacterial count in biofilm (CFU/ml × 10^7),"[3]; T 4 μg/ml, 12 day biofilm",25 CFU × 10^7
same,decrease of the number of CFU/ml of the 12-day biofilm versus the positive control,[3],"neither tobramycin 4 μg/ml nor clarithromycin at 100, 200 and 500 μg/ml alone are able to decrease the number of CFU/m1"
same,number of CFU/ml,"[3]; tobramycin alone at 4 μg/ml, 12 day biofilm",around 2.5×10^8 CFU/ml
CC[C@H]1OC(=O)[C@H](C)[C@@H](O[C@H]2C[C@@](C)(OC)[C@@H](O)[C@H](C)O2)[C@H](C)[C@@H](O[C@@H]2O[C@H](C)C[C@H](N(C)C)[C@H]2O)[C@](C)(OC)C[C@@H](C)C(=O)[C@H](C)[C@@H](O)[C@]1(C)O [Clarithromycin],Device deposition,[1]; [6],1.155 mg
same,FPD,[1]; [6],3.14 mg
same,FPF,[1]; [6],31.4%
same,Filter deposition,[1]; [6],0.478 mg
same,Stage 1 deposition,[1]; [6],1.338 mg
same,Stage 2 deposition,[1]; [6],0.664 mg
same,Stage 3 deposition,[1]; [6],1.715 mg
same,Stage 4 deposition,[1]; [6],1.162 mg
same,Throat deposition,[1]; [6],1.025 mg
same,Device deposition,[1]; [7],1.048 mg
same,FPD,[1]; [7],3.76 mg
same,FPF,[1]; [7],37.6%
same,Filter deposition,[1]; [7],0.598 mg
same,Stage 1 deposition,[1]; [7],1.566 mg
same,Stage 2 deposition,[1]; [7],0.845 mg
same,Stage 3 deposition,[1]; [7],1.891 mg
same,Stage 4 deposition,[1]; [7],1.482 mg
same,Throat deposition,[1]; [7],1.134 mg
same,Device deposition,[1]; [8],1.433 mg
same,FPD,[1]; [8],3.98 mg
same,FPF,[1]; [8],39.9%
same,Filter deposition,[1]; [8],0.574 mg
same,Stage 1 deposition,[1]; [8],1.352 mg
same,Stage 2 deposition,[1]; [8],0.680 mg
same,Stage 3 deposition,[1]; [8],2.078 mg
same,Stage 4 deposition,[1]; [8],1.533 mg
same,Throat deposition,[1]; [8],1.223 mg
same,Device deposition,[1]; [9],1.212 mg
same,FPD,[1]; [9],3.63 mg
same,FPF,[1]; [9],36.3%
same,Filter deposition,[1]; [9],0.550 mg
same,Stage 1 deposition,[1]; [9],1.419 mg
same,Stage 2 deposition,[1]; [9],0.729 mg
same,Stage 3 deposition,[1]; [9],1.895 mg
same,Stage 4 deposition,[1]; [9],1.392 mg
same,Throat deposition,[1]; [9],1.127 mg
same,FPD/capsule,[1]; [10],3.63 mg
same,FPF,[1]; [10],36.3%
same,lung concentration per capsule,[1],36.3 µg/mL
same,sensitivity of the bacterium (MIC could not be determined),[4],not sensitive
same,mean particle size,[5],1.6 μm
same,bacterial count in biofilm (CFU/ml × 10^7),"[3]; C 100 μg/ml, 12 day biofilm",14 CFU × 10^7
same,bacterial count in biofilm (CFU/ml × 10^7),"[3]; C 200 μg/ml, 12 day biofilm",10 CFU × 10^7
same,bacterial count in biofilm (CFU/ml × 10^7),"[3]; C 500 μg/ml, 12 day biofilm",7 CFU × 10^7
same,decrease of the number of CFU/ml of the 12-day biofilm versus the positive control,[3],"neither tobramycin 4 μg/ml nor clarithromycin at 100, 200 and 500 μg/ml alone are able to decrease the number of CFU/m1"
